Laboratory results reported in patent publication US20260248972A1, “DUAL RECEPTOR TARGETING RADIOLIGANDS AND USES THEREOF RELATED APPLICATIONS” (priority 2022, published 2026).
Like-named read-outs stand apart in the source and are kept apart here.

Tests used:
SSTR2 = target: T1, SSTR2 (Rattus norvegicus, UniProt P30680); experiment: Competitive cell-binding assay on AR42J cells with 125I-C1 as competitive ligand
T1 construct: host or cells: AR42J cells
Experimental: (§1) AR42J cells (ATCC) were maintained in RPMI-1640 medium (Gibco) supplemented with 15% fetal bovine serum (Gibco) and 1% penicillin-streptomycin (BI) at 37° C. in a humidified incubator with 5% CO2. The culture medium was replaced with fresh medium every 2-3 days. Experiments were performed with cells at 70-80% confluence.
(§2) Binding Affinity Tested by Using ^125I-Labeled Competitive Ligands.
(§3) The binding affinities of test compounds were determined by a competitive cell-binding assay using ^125I-C1 and ^125I-C3 as the competitive ligand. The suspended AR42J cells at a density of 1~3×10^6 cells/mL in binding buffer (RPMI-1640 medium supplemented with 0.25% bovine serum albumin) were transferred to a MultiScreen-DV Filter Plate (Millipore) with 100 μL per well except the blank group where the binding buffer was used instead. The cells were then incubated with ^125I-C1 and ^125I-C3 (0.02 μCi/well) in the presence of increasing concentrations (0-10000 nM) of test compounds at 37° C. for 1 h (n=3). The final volume in each well was maintained at 200 μL and insufficient volume was adjusted by the binding buffer. After the 1 h incubation, unbound ^125I-competitive ligands were removed by filtration using a Multiscreen vacuum manifold (Millipore) followed by rinses with the binding buffer (3 times). The filters were collected, and their radioactivity were individually measured by γ counter (2480 WIZARD2, PerkinElmer). The best-fit IC50value (inhibitory concentration when 50% of the bound ^125I-C1 and ^125l I-C3 on cells were displaced) of test compounds were calculated by fitting the data with nonlinear regression using GraphPad Prism 8.0.1.

CCK2R = target: T2, CCK2R (Rattus norvegicus, UniProt P30553); experiment: Competitive cell-binding assay on AR42J cells with 125I-C3 as competitive ligand
T2 construct: host or cells: AR42J cells
T2 sequence (P30553 1-452): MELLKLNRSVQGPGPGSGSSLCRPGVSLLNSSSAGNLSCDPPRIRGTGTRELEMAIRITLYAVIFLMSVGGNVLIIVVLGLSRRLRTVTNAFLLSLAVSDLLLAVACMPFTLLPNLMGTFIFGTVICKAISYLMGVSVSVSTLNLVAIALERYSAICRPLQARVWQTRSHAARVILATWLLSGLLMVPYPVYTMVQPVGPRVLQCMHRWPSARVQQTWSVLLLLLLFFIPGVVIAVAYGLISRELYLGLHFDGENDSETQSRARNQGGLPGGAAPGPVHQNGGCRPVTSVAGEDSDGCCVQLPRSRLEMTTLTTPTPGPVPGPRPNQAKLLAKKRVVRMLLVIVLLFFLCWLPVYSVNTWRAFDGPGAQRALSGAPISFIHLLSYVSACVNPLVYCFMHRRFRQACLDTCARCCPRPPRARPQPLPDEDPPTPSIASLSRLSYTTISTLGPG
Experimental: as §1, §2, §3

T1 sequence (P30680 whole entry): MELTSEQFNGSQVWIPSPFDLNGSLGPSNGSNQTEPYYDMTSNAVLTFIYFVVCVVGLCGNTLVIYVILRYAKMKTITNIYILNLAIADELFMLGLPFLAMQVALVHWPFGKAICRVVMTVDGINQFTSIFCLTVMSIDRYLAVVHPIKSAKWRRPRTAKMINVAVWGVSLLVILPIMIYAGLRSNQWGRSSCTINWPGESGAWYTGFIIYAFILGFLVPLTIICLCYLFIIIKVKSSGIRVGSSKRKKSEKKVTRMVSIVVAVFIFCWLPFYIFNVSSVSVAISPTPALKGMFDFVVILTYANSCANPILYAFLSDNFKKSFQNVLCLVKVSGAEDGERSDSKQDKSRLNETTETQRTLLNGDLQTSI

| Relative Binding Affinity SSTR2 (SSTR2; based on mean IC50, C-1 = 1.00) | Relative Binding Affinity CCK2R (CCK2R; based on mean IC50, C-2 = 1.00) | SMILES | other results |
| --- | --- | --- | --- |
| 0.90 | 53.1 | C[C@@H](O)[C@H](NC(=O)[C@@H]1CSSC[C@H](NC(=O)[C@@H](Cc2ccccc2)NC(=O)[C@H](CCCCNC(=O)[C@H](CCC(=O)O)NC(=O)c2cccc(NC(=O)N[C@@H]3CN(C4CCCCC4)c4ccccc4N(CC(=O)C(C)(C)C)C3=O)c2)NC(=O)CN2CCN(CC(=O)O)CCN(CC(=O)O)CCN(CC(=O)O)CC2)C(=O)N[C@@H](Cc2ccc(O)cc2)C(=O)N[C@H](Cc2c[nH]c3ccccc23)C(=O)N[C@@H](CCCCN)C(=O)N[C@@H]([C@@H](C)O)C(=O)N1)C(N)=O [Compound I-4, DOTA-K(-E-Z360)-f[CYwKTC]T-NH2] |  |
|  |  | C[C@@H](O)[C@H](NC(=O)[C@@H]1CSSC[C@H](NC(=O)[C@@H](Cc2ccccc2)NC(=O)[C@H](CCCCNC(=O)COCCOCCNC(=O)COCCOCCNC(=O)COCCOCCNC(=O)c2cccc(NC(=O)N[C@@H]3CN(C4CCCCC4)c4ccccc4N(CC(=O)C(C)(C)C)C3=O)c2)NC(=O)CN2CCN(CC(=O)O)CCN(CC(=O)O)CCN(CC(=O)O)CC2)C(=O)N[C@@H](Cc2ccc(O)cc2)C(=O)N[C@H](Cc2c[nH]c3ccccc23)C(=O)N[C@@H](CCCCN)C(=O)N[C@@H]([C@@H](C)O)C(=O)N1)C(=O)O [Compound I-46, DOTA-K(-OEG-OEG-OEG-Z360)-f[CYwKTC]T-OH] | Relative Binding Affinity SSTR2 (SSTR2): 0.43; Relative Binding Affinity CCK2R (CCK2R): 50.2 |
| 0.16 | 17.3 | C[C@@H](O)[C@H](NC(=O)[C@@H]1CSSC[C@H](NC(=O)[C@@H](Cc2ccccc2)NC(=O)COCCOCCNC(=O)COCCOCCNC(=O)[C@H](CCCCNC(=O)CCC(C(=O)O)N2CCN(CC(=O)O)CCN(CC(=O)O)CCN(CC(=O)O)CC2)NC(=O)COCCOCCNC(=O)COCCOCCNC(=O)CC[C@H](NC(=O)CC[C@H](NC(=O)c2cccc(NC(=O)N[C@@H]3CN(C4CCCCC4)c4ccccc4N(CC(=O)C(C)(C)C)C3=O)c2)C(=O)O)C(=O)O)C(=O)N[C@@H](Cc2ccc(O)cc2)C(=O)N[C@H](Cc2c[nH]c3ccccc23)C(=O)N[C@@H](CCCCN)C(=O)N[C@@H]([C@@H](C)O)C(=O)N1)C(=O)O (some centres unmarked) [Compound I-17, (Z360)- gE- gE- OEG- OEG- K(DOTAGA)- OEG- OEG- f[CYwKTC]T- OH (] |  |
|  |  | C[C@@H](O)[C@H](NC(=O)[C@@H]1CSSC[C@H](NC(=O)[C@@H](Cc2ccccc2)NC(=O)COCCOCCNC(=O)[C@H](CCCCNC(=O)COCCOCCNC(=O)c2cccc(NC(=O)N[C@@H]3CN(C4CCCCC4)c4ccccc4N(CC(=O)C(C)(C)C)C3=O)c2)NC(=O)CN2CCN(CC(=O)O)CCN(CC(=O)O)CCN(CC(=O)O)CC2)C(=O)N[C@@H](Cc2ccc(O)cc2)C(=O)N[C@H](Cc2c[nH]c3ccccc23)C(=O)N[C@@H](CCCCN)C(=O)N[C@@H]([C@@H](C)O)C(=O)N1)C(=O)O [Compound I-43, DOTA-K(-OEG-Z360)-OEG-f[CYwKTC]T-OH] | Relative Binding Affinity SSTR2 (SSTR2): 0.61; Relative Binding Affinity CCK2R (CCK2R): 4.0 |
| 1.36 | 1.7 | C[C@@H](O)[C@H](NC(=O)[C@@H]1CSSC[C@H](NC(=O)[C@@H](Cc2ccccc2)NC(=O)COCCOCCNC(=O)COCCOCCNC(=O)COCCOCCNC(=O)[C@H](CCCCNC(=O)c2cccc(NC(=O)N[C@@H]3CN(C4CCCCC4)c4ccccc4N(CC(=O)C(C)(C)C)C3=O)c2)NC(=O)CN2CCN(CC(=O)O)CCN(CC(=O)O)CCN(CC(=O)O)CC2)C(=O)N[C@@H](Cc2ccc(O)cc2)C(=O)N[C@H](Cc2c[nH]c3ccccc23)C(=O)N[C@@H](CCCCN)C(=O)N[C@@H]([C@@H](C)O)C(=O)N1)C(=O)O [Compound I-45, DOTA-K(Z360)-OEG-OEG-OEG-f[CYwKTC]T-OH] | IC50 (SSTR2; AR42J cells, 125I-C1 competitive ligand, 37° C. 1 h, read-out: SSTR2/IC50): 2.07 nM; IC50 (CCK2R; AR42J cells, 125I-C3 competitive ligand, 37° C. 1 h, read-out: CCK2R/IC50): 9.9 nM |
| 0.10 | 216 | C[C@@H](O)[C@@H]1NC(=O)[C@H](CCCCN)NC(=O)[C@@H](Cc2c[nH]c3ccccc23)NC(=O)[C@H](Cc2ccc(O)cc2)NC(=O)[C@@H](NC(=O)[C@@H](Cc2ccccc2)NC(=O)COCCOCCNC(=O)[C@H](CCCCNC(=O)[C@H](CCC(=O)O)NC(=O)c2cccc(NC(=O)N[C@@H]3CN(C4CCCCC4)c4ccccc4N(CC(=O)C(C)(C)C)C3=O)c2)NC(=O)CN2CCN(CC(=O)O)CCN(CC(=O)O)CCN(CC(=O)O)CC2)CSSC[C@@H](C(=O)N[C@H](CO)[C@@H](C)O)NC1=O [Compound I-5, DOTA-K(-E-Z360)-OEG-f[CYwKTC]-Thr(ol)] |  |
| 0.61 | 255 | C[C@@H](O)[C@H](NC(=O)[C@@H]1CSSC[C@H](NC(=O)[C@@H](Cc2ccccc2)NC(=O)COCCOCCNC(=O)[C@H](CCCCNC(=O)CN2CCN(CC(=O)O)CCN(CC(=O)O)CCN(CC(=O)O)CC2)NC(=O)CC[C@H](NC(=O)COCCOCCNC(=O)CC[C@H](NC(=O)[C@H](CCC(=O)O)NC(=O)c2cccc(NC(=O)N[C@@H]3CN(C4CCCCC4)c4ccccc4N(CC(=O)C(C)(C)C)C3=O)c2)C(=O)O)C(=O)O)C(=O)N[C@@H](Cc2ccc(O)cc2)C(=O)N[C@H](Cc2c[nH]c3ccccc23)C(=O)N[C@@H](CCCCN)C(=O)N[C@@H]([C@@H](C)O)C(=O)N1)C(=O)O [Compound I-12, (Z360)-E-gE-OEG-gE-K(DOTA)-OEG-f[CYwKTC]T-OH] |  |
|  | 21.9 | CC(C)(C)C(=O)CN1C(=O)[C@H](NC(=O)Nc2cccc(C(=O)N[C@@H](CCC(=O)N[C@@H](CCC(=O)N[C@@H](CCC(=O)N[C@@H](CCCCNC(=O)COCCOCCNC(=O)COCCOCCNC(=O)CCC(C(=O)O)N3CCN(CC(=O)O)CCN(CC(=O)O)CCN(CC(=O)O)CC3)C(N)=O)C(=O)O)C(=O)O)C(=O)O)c2)CN(C2CCCCC2)c2ccccc21 (some centres unmarked) [Compound C-4, Z360-gE-gE-gE-K(-OEG-OEG-DOTAGA)-NH2, reference compound] |  |
|  |  | C[C@@H](O)[C@H](NC(=O)[C@@H]1CSSC[C@H](NC(=O)[C@@H](Cc2ccccc2)NC(=O)COCCOCCNC(=O)[C@H](CCCCNC(=O)CCC(C(=O)O)N2CCN(CC(=O)O)CCN(CC(=O)O)CCN(CC(=O)O)CC2)NC(=O)COCCOCCNC(=O)c2cccc(NC(=O)N[C@@H]3CN(C4CCCCC4)c4ccccc4N(CC(=O)C(C)(C)C)C3=O)c2)C(=O)N[C@@H](Cc2ccc(O)cc2)C(=O)N[C@H](Cc2c[nH]c3ccccc23)C(=O)N[C@@H](CCCCN)C(=O)N[C@@H]([C@@H](C)O)C(=O)N1)C(=O)O (some centres unmarked) [Compound I-31, Z360- OEG- K(DOTAGA)- OEG- f[CYwKTC]T- OH] | Relative Binding Affinity SSTR2 (SSTR2): 4.75; Relative Binding Affinity CCK2R (CCK2R): 8.8 |
| 0.29 | 71.1 | C[C@@H](O)[C@H](NC(=O)[C@@H]1CSSC[C@H](NC(=O)[C@@H](Cc2ccccc2)NC(=O)COCCOCCNC(=O)[C@H](CCCCNC(=O)CC[C@H](NC(=O)CNC(=O)c2cccc(NC(=O)N[C@@H]3CN(C4CCCCC4)c4ccccc4N(CC(=O)C(C)(C)C)C3=O)c2)C(=O)O)NC(=O)COCCOCCNC(=O)COCCOCCNC(=O)CC[C@H](NC(=O)CC[C@H](NC(=O)CN2CCN(CC(=O)O)CCN(CC(=O)O)CCN(CC(=O)O)CC2)C(=O)O)C(=O)O)C(=O)N[C@@H](Cc2ccc(O)cc2)C(=O)N[C@H](Cc2c[nH]c3ccccc23)C(=O)N[C@@H](CCCCN)C(=O)N[C@@H]([C@@H](C)O)C(=O)N1)C(=O)O [Compound I-15, DOTA-gE-gE-OEG-OEG-K(-gE-G-Z360)-OEG-f[CYwKTC]T-OH] |  |
| 0.20 | 19.7 | C[C@@H](O)[C@@H]1NC(=O)[C@H](CCCCN)NC(=O)[C@@H](Cc2c[nH]c3ccccc23)NC(=O)[C@H](Cc2ccc(O)cc2)NC(=O)[C@@H](NC(=O)[C@@H](Cc2ccccc2)NC(=O)[C@H](CCCCNC(=O)[C@H](CCC(=O)O)NC(=O)c2cccc(NC(=O)N[C@@H]3CN(C4CCCCC4)c4ccccc4N(CC(=O)C(C)(C)C)C3=O)c2)NC(=O)CN2CCN(CC(=O)O)CCN(CC(=O)O)CCN(CC(=O)O)CC2)CSSC[C@@H](C(=O)N[C@H](CO)[C@@H](C)O)NC1=O [Compound I-6, DOTA-K(-E-Z360)-f[CYwKTC]-Thr(ol)] |  |
